Values after ≈ are worked out from the molar mass of the structure shown. Read-outs that look alike come from different tables or passages of the source.
Experiments:
[1] = test system: MRSA USA300; assay: MIC against MRSA USA300 with and without 4% human serum albumin; assay type: cell-based, Staphylococcus aureus; conditions: Staphylococcus aureus, read-out: MIC against MRSA USA300
Protocol: The minimum inhibitory concentration (MIC) and the minimum bactericidal concentration (MBC) of rhodanine compounds 1 to 7 were determined against various Gram-positive and Gram-negative pathogens (S1 Table) following the guidelines of the Clinical and Laboratory Standards Institute (CLSI)[4]. The broth microdilution technique was used, followed by subculturing on agar plates that were rhodanine—free. […] The MICs reported represent the lowest concentration of each compound necessary to inhibit bacterial growth and the MBCs represent the lowest concentration required to reduce the initial bacterial inoculum by ≥ 99.9%.
The antimicrobial activity of rhodanine compounds in the presence of 4% human serum albumin (HSA) was tested against MRSA USA300. The MICs of rhodanine compounds and control antibiotics (vancomycin and daptomycin) were tested as described in the methods above using tryptic soy broth spiked with 4% HSA. We also synthesized and tested three more compounds, ethyl ester and amide of rhodanine 2 (Rh 8 and Rh 10, respectively) and ethyl ester of rhodanine 3 (Rh 9) to determine the influence of a carboxyl group modification toward anti-MRSA activity and human serum albumin (HSA) binding.

[2] = test system: Acinetobacter baumannii; assay: MIC with/without sub-MIC colistin, Acinetobacter baumannii; assay type: cell-based
Protocol: (§1) The MIC of the rhodanines and control antibiotics, in the presence of a sub-inhibitory concentration of colistin or polymixin B nonapeptide (PMBN), against Gram-negative bacteria was evaluated as described before. The antibacterial activity of the rhodanines was further investigated against E. coli SM1411Δ acrAB, a strain that is deficient in the multidrug-resistant AcrAB efflux pump, as described before.

[3] = test system: Escherichia coli O157:H7; assay: MIC with/without sub-MIC colistin, Escherichia coli O157:H7; assay type: cell-based
Protocol: as §1

[4] = test system: Salmonella Typhimurium; assay: MIC with/without sub-MIC colistin, Salmonella Typhimurium; assay type: cell-based
Protocol: as §1

[5] = test system: Klebsiella pneumoniae; assay: MIC with/without sub-MIC colistin, Klebsiella pneumoniae; assay type: cell-based
Protocol: as §1

[6] = test system: Pseudomonas aeruginosa; assay: MIC with/without sub-MIC colistin, Pseudomonas aeruginosa; assay type: cell-based
Protocol: as §1

[7] = test system: Acinetobacter baumannii; assay: MIC with/without PMBN, Acinetobacter baumannii; assay type: cell-based
Protocol: as §1

[8] = test system: Escherichia coli O157:H7; assay: MIC with/without PMBN, Escherichia coli O157:H7; assay type: cell-based
Protocol: as §1

[9] = test system: Salmonella Typhimurium; assay: MIC with/without PMBN, Salmonella Typhimurium; assay type: cell-based
Protocol: as §1

[10] = test system: Klebsiella pneumoniae; assay: MIC with/without PMBN, Klebsiella pneumoniae; assay type: cell-based
Protocol: as §1

[11] = test system: Pseudomonas aeruginosa; assay: MIC with/without PMBN, Pseudomonas aeruginosa; assay type: cell-based
Protocol: as §1

[12] = test system: Escherichia coli Δ acrAB; assay: MIC against E. coli 1411 and AcrAB efflux pump deficient E. coli SM1411Δ acrAB; assay type: cell-based
Protocol: as §1

[13] = test system: Mycobacterium smegmatis; assay: Broth microdilution MIC/MBC, Mycobacterium smegmatis; assay type: cell-based; conditions: Mycolicibacterium smegmatis, ATCC14468, M. Smegmatis ATCC 14468
[14] = Acinetobacter baumannii ATCC BAA747, colistin (+) […], read-out: MIC
[15] = Acinetobacter baumannii ATCC BAA19606, colistin (+) […], read-out: MIC
[16] = Acinetobacter baumannii, ATCCBAA747
[17] = Acinetobacter baumannii, ATCCBAA19606
[18] = Escherichia coli O157:H7 ATCC 35150, colistin (+) […], read-out: MIC
[19] = Escherichia coli O157:H7 ATCC 700728, colistin (+) […], read-out: MIC
[20] = Salmonella Typhimurium ATCC 700720, colistin (+) […], read-out: MIC
[21] = Salmonella enterica, ATCC 700720 / TYPHIMURIUM
[22] = Klebsiella pneumoniae ATCC BAA 2146, colistin (+) […]
[23] = Pseudomonas aeruginosa ATCC 921, colistin (+) […], read-out: MIC
[24] = Pseudomonas aeruginosa, ATCC921
[25] = Acinetobacter baumannii ATCC BAA747, PMBN (+) 4 μg/mL, read-out: MIC
[26] = Acinetobacter baumannii ATCC BAA19606, PMBN (+) 4 μg/mL, read-out: MIC
[27] = Escherichia coli O157:H7 ATCC 35150, PMBN (+) 4 μg/mL, read-out: MIC
[28] = Escherichia coli O157:H7 ATCC 700728, PMBN (+) 4 μg/mL, read-out: MIC
[29] = Salmonella Typhimurium ATCC 700720, PMBN (+) 4 μg/mL, read-out: MIC
[30] = Klebsiella pneumoniae ATCC BAA 1706, PMBN (+) 4 μg/mL
[31] = Klebsiella pneumoniae ATCC BAA 2146, PMBN (+) 4 μg/mL
[32] = Pseudomonas aeruginosa ATCC 9721, PMBN (+) 4 μg/mL, read-out: MIC
[33] = Pseudomonas aeruginosa, ATCC9721
[34] = E.coli 1411 SM (Δ acrAB, AcrAB efflux pump deficient)

Structure (SMILES): CCCCCCCCCC(=O)N[C@@H](Cc1c[nH]c2ccccc12)C(=O)N[C@H](CC(N)=O)C(=O)N[C@@H](CC(=O)O)C(=O)N[C@@H]1C(=O)NCC(=O)N[C@@H](CCCN)C(=O)N[C@@H](CC(=O)O)C(=O)N[C@H](C)C(=O)N[C@@H](CC(=O)O)C(=O)NCC(=O)N[C@H](CO)C(=O)N[C@@H]([C@H](C)CC(=O)O)C(=O)N[C@@H](CC(=O)c2ccccc2N)C(=O)O[C@@H]1C [Daptomycin, reference compound]
- MIC ([1]; 24 h, Media TSB + 4% HSA): 64 µM
- MIC ([1]; Media TSB): 4 µM (≈ 6.48 µg/mL)
- MIC [2, 14]: >64 µM
- MIC [2, 15]: >64 µM
- MIC [2, 16]: > 128 µM
- MIC [2, 17]: > 128 µM
- MIC ([3]; ATCC35150, Escherichia coli O157:H7 ATCC 35150, colistin (-), read-out: MIC): > 128 µM
- MIC ([3]; ATCC700728, Escherichia coli O157:H7 ATCC 700728, colistin (-), read-out: MIC): > 128 µM
- MIC [3, 18]: >64 µM
- MIC [3, 19]: >64 µM
- MIC [4, 20]: >64 µM
- MIC [4, 21]: > 128 µM
- MIC [5, 22]: >64 µM
- MIC ([5]; Klebsiella pneumoniae, BAA2146): > 128 µM
- MIC [6, 23]: >64 µM
- MIC [6, 24]: > 128 µM
- MIC [7, 25]: >64 µM
- MIC [7, 26]: >64 µM
- MIC [7, 16]: > 128 µM
- MIC [7, 17]: > 128 µM
- MIC ([8]; ATCC35150, Escherichia coli O157:H7 ATCC 35150, PMBN (-), read-out: MIC): > 256 µM
- MIC ([8]; ATCC700728, Escherichia coli O157:H7 ATCC 700728, PMBN (-), read-out: MIC): > 128 µM
- MIC [8, 27]: >256 µM
- MIC [8, 28]: >64 µM
- MIC [9, 29]: >128 µM
- MIC [9, 21]: > 128 µM
- MIC [10, 30]: >64 µM
- MIC [10, 31]: >64 µM
- MIC ([10]; Klebsiella pneumoniae, BAA1706): > 128 µM
- MIC ([10]; Klebsiella pneumoniae, BAA2146): > 128 µM
- MIC [11, 32]: >64 µM
- MIC [11, 33]: > 128 µM
- MIC ([12]; E.coli 1411): > 64 µM
- MIC [12, 34]: > 64 µM

Structure (SMILES): CC(=O)O[C@H]1C[C@@]2(C)[C@@H](C[C@@H](O)[C@H]3[C@@]4(C)CC[C@@H](O)[C@@H](C)[C@@H]4CC[C@@]32C)/C1=C(\CCC=C(C)C)C(=O)O [Fusidic acid, fusidic acid, reference compound]
- MIC [2, 14]: 1 µM (≈ 0.517 µg/mL)
- MIC [2, 15]: ≤0.5 µM
- MIC [2, 16]: > 128 µM
- MIC [2, 17]: 128 µM (≈ 66.1 µg/mL)
- MIC [3, 18]: ≤0.5 µM
- MIC [3, 19]: ≤0.5 µM
- MIC ([3]; Escherichia coli, ATCC35150): > 128 µM
- MIC ([3]; Escherichia coli, ATCC700728): > 128 µM
- MIC [4, 20]: 64 µM (≈ 33.1 µg/mL)
- MIC [4, 21]: > 128 µM
- MIC [5, 22]: >64 µM
- MIC ([5]; Klebsiella pneumoniae, BAA2146): > 128 µM
- MIC [6, 23]: >64 µM
- MIC [6, 24]: > 128 µM
- MIC [7, 25]: 2 µM (≈ 1.03 µg/mL)
- MIC [7, 26]: 2 µM (≈ 1.03 µg/mL)
- MIC [7, 16]: > 128 µM
- MIC [7, 17]: 128 µM (≈ 66.1 µg/mL)
- MIC [8, 27]: 4 µM (≈ 2.07 µg/mL)
- MIC [8, 28]: 32 µM (≈ 16.5 µg/mL)
- MIC ([8]; Escherichia coli, ATCC35150): > 256 µM
- MIC ([8]; Escherichia coli, ATCC700728): > 128 µM
- MIC [9, 29]: 64 µM (≈ 33.1 µg/mL)
- MIC [9, 21]: > 128 µM
- MIC [10, 30]: 16 µM (≈ 8.27 µg/mL)
- MIC [10, 31]: >64 µM
- MIC ([10]; Klebsiella pneumoniae, BAA1706): > 128 µM
- MIC ([10]; Klebsiella pneumoniae, BAA2146): > 128 µM
- MIC [11, 32]: 4 µM (≈ 2.07 µg/mL)
- MIC [11, 33]: > 128 µM
- MIC ([12]; E.coli 1411): > 64 µM
- MIC [12, 34]: 4 µM (≈ 2.07 µg/mL)

Structure (SMILES): CO[C@H]1/C=C/O[C@@]2(C)Oc3c(C)c(O)c4c(O)c(c(/C=N/N5CCN(C)CC5)c(O)c4c3C2=O)NC(=O)/C(C)=C\C=C\[C@H](C)[C@H](O)[C@@H](C)[C@@H](O)[C@@H](C)[C@H](OC(C)=O)[C@@H]1C [Rifampicin, rifampicin, reference compound]
- MBC ([13]; read-out: MBC): > 64 µM
- MIC ([13]; read-out: MIC): 32 µM (≈ 26.3 µg/mL)
